Test in all cases: Fluorescence quenching titration, thermodynamic dissociation constant (KD)
The target in assay [1] is T1, human FGF-2 mutant gln¹³⁴FGF-2 (lysine-134 replaced by glutamine) (Homo sapiens, UniProt P09038, A136E/K267Q/S138E).
T1 construct: a synthetic gene encoding the 155 amino acid form of human FGF-2; made in house; host or cells: E. coli BL21 plys S
Type of assay: binding. Particulars: tryptophan fluorescence quenching, 10 mM Tris-HCl, pH 7.4, 2 mM dithiothreitol, read-out: KD BCDS. Here is the method: (§1) FGF-2 contains a single tryptophan residue at position 123. […] Therefore, the fluorescence properties of FGF-2 and FGF-2 mutants in the presence and absence of heparin and a heparin mimic, β-cyclodextran tetradecasulfate (BCDS) are evaluated in this example.
(§2) Fluorescence titration measurements are conducted in a Perkin-Elmer LS-5 fluorospectrometer using excitation and emission wavelengths of 290 nm and 350 nm, respectively. Two milliliters of FGF solution in 10 mM Tris-HCl, pH 7.4, containing 2 mM of dithiothreitol are placed in a cuvette. […] Concentrations of FGF-2 and gln^128,138FGF-2 are 370 nM and 280 nM, respectively. […] An equivalent tryptophan residue, Trp122, exists in acidic FGF (FGF-1), for which similar fluorescence quenching is obtained.
(§3) The thermodynamic dissociation constant (KD) is obtained from plots of fluorescence intensity versus ligand concentration. The fluorescence intensity data are fitted by non-linear regression by using equation 1 below, where FO is observed fluorescence intensity, FI is initial intensity, Δ F is the difference between final and the initial fluorescence intensities, Ct is the total FGF protein concentration, KD is the thermodynamic dissociation constant, and Lt is the total heparin concentration. It is assumed in equation 1 that the stoichiometry of FGF and heparin in the complex is 1:1. A graphic software Kaleidagraph is used for handling data. [formula] However, in the fluorescence titration experiments the titration curves shown in Figure 1 cannot be fitted directly using equation 1. […] Since the heparin preparation used here is composed of an average of 20 sulfated monosaccharide units per chain, it is likely that more than one FGF molecule is bound per oligosaccharide chain. […] Moreover, it is reasonable to assume that, in the absence of any data to indicate otherwise, the binding sites on heparin are independent and the binding affinities are similar. […] Under this assumption, the effective concentration of the ligand needs to be adjusted by the multiplication of the actual concentrations by the number of possible binding sites. If n is the average number of FGF molecules bound per oligosaccharide, then equation 1 can be modified to give [formula] in which the effective concentration of the ligand is increased by n times.
(§4) Equation 2 is used to fit the data shown in Figure 1 and the values of the two variables, KD and n, are determined by non-linear regression of at least three titration curves for each molecule. An average of four (n = 4) FGF-2 molecules interacting with heparin is obtained. Four binding sites on each heparin molecule are assumed for mutant gln^128,138FGF-2. Since the molecular weight of heparin used in the experiments is about 5000, which has an average of 20 monosaccharide units, about 4 to 6 monosaccharide units may interact with each FGF molecule. Two to four FGF molecules can bind to one BCDS (which has a calculated molecular weight of 2226). This estimate is in good agreement with that reported by Mach, et al. (Biochemistry 32: 5480-5489 (1993)) of a stoichiometry of 1:4-6 determined by a variety of different approaches including light scattering and analytical ultracentrifugation analyses.
(§5) Table I presents the thermodynamic dissociation constants obtained from fluorescence quenching experiments for the wild-type FGF and the mutants using heparin or BCDS.

The target of assay [2] is T2, human FGF-2 mutant gln^129,134FGF-2 (arginine-129 and lysine-134 replaced by glutamine) (Homo sapiens, UniProt P09038, A136E/K267Q/R262Q/S138E).
T2 construct: a synthetic gene encoding the 155 amino acid form of human FGF-2; made in house; host or cells: E. coli BL21 plys S
T2 sequence (P09038 134-288 A136E/S138E/R262Q/K267Q): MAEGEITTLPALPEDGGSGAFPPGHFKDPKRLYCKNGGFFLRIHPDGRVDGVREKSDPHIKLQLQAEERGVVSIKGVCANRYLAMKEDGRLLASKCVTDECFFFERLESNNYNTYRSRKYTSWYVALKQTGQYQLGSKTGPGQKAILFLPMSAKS
Type of assay: binding. The note with it: tryptophan fluorescence quenching, 10 mM Tris-HCl, pH 7.4, 2 mM dithiothreitol, read-out: KD BCDS. Here is the method:
as §1, §2, §3, §4, §5

For assay [3], the target named is T3, human FGF-2 mutant gln^128,138FGF-2 (lysine-128 and lysine-138 replaced by glutamine) (Homo sapiens, UniProt P09038, A136E/K261Q/K271Q/S138E).
T3 construct: a synthetic gene encoding the 155 amino acid form of human FGF-2; made in house; host or cells: E. coli BL21 plys S
T3 sequence (P09038 134-288 A136E/S138E/K261Q/K271Q): as the sequence (P09038 134-288 A136E/S138E/R262Q/K267Q) above, with K128Q, Q129R, Q134K, K138Q counted along it
Type of assay: binding. Particulars: tryptophan fluorescence quenching, 10 mM Tris-HCl, pH 7.4, 2 mM dithiothreitol, read-out: KD BCDS. Here is the method:
as §1, §2, §3, §4, §5

Assay [4] addresses T4, human FGF-2, wild-type (recombinant glu^3,5FGF-2) (Homo sapiens, UniProt P09038, A136E/S138E).
T4 construct: a synthetic gene encoding the 155 amino acid form of human FGF-2; made in house; host or cells: E. coli BL21 plys S (stated for the mutants; inferred for the wild type)
Type of assay: binding. Particulars: wild-type FGF-2; tryptophan fluorescence quenching, 10 mM Tris-HCl, pH 7.4, 2 mM dithiothreitol; read-out: KD BCDS. Here is the method: as §1, §2, §3, §4, §5

Assay [5] deals with T5, human FGF-2 mutant gln¹²⁹FGF-2 (arginine-129 replaced by glutamine) (Homo sapiens, UniProt P09038, A136E/R262Q/S138E).
T5 construct: a synthetic gene encoding the 155 amino acid form of human FGF-2; made in house; host or cells: E. coli BL21 plys S
T5 sequence (P09038 134-288 A136E/S138E/R262Q): as the sequence (P09038 134-288 A136E/S138E/R262Q/K267Q) above, with Q134K counted along it
Type of assay: binding. Particulars: tryptophan fluorescence quenching, 10 mM Tris-HCl, pH 7.4, 2 mM dithiothreitol, read-out: KD BCDS. Here is the method:
as §1, §2, §3, §4, §5

In assay [6] the target is T6, human FGF-2 mutant gln¹³⁸FGF-2 (lysine-138 replaced by glutamine) (Homo sapiens, UniProt P09038, A136E/K271Q/S138E).
T6 construct: a synthetic gene encoding the 155 amino acid form of human FGF-2; made in house; host or cells: E. coli BL21 plys S
T6 sequence (P09038 134-288 A136E/S138E/K271Q): as the sequence (P09038 134-288 A136E/S138E/R262Q/K267Q) above, with Q129R, Q134K, K138Q counted along it
Type of assay: binding. The note with it: tryptophan fluorescence quenching, 10 mM Tris-HCl, pH 7.4, 2 mM dithiothreitol, read-out: KD BCDS. Here is the method: as §1, §2, §3, §4, §5

Assay [7] has as its target T7, human FGF-2 mutant gln¹²⁸FGF-2 (lysine-128 replaced by glutamine) (Homo sapiens, UniProt P09038, A136E/K261Q/S138E).
T7 construct: a synthetic gene encoding the 155 amino acid form of human FGF-2; made in house; host or cells: E. coli BL21 plys S
Type of assay: binding. Particulars: tryptophan fluorescence quenching, 10 mM Tris-HCl, pH 7.4, 2 mM dithiothreitol, read-out: KD BCDS. Here is the method: as §1, §2, §3, §4, §5

Assay [8] has as its target FGF-1 (acidic FGF) (Homo sapiens, UniProt P05230). The note with it: tryptophan fluorescence quenching, 10 mM Tris-HCl, pH 7.4, 2 mM dithiothreitol, fitted with n binding sites per ligand, read-out: KD BCDS. Here is the method: as §1, §2
The thermodynamic dissociation constant (KD) is obtained from plots of fluorescence intensity versus ligand concentration. The fluorescence intensity data are fitted by non-linear regression by using equation 1 below, where FO is observed fluorescence intensity, FI is initial intensity, Δ F is the difference between final and the initial fluorescence intensities, Ct is the total FGF protein concentration, KD is the thermodynamic dissociation constant, and Lt is the total heparin concentration. […] However, in the fluorescence titration experiments the titration curves shown in Figure 1 cannot be fitted directly using equation 1. […]

T4 sequence (P09038 134-288 A136E/S138E): as the sequence (P09038 134-288 A136E/S138E/R262Q/K267Q) above, with Q129R, Q134K counted along it
Sequence of FGF-1 (acidic FGF) (P05230 whole entry, species assumed): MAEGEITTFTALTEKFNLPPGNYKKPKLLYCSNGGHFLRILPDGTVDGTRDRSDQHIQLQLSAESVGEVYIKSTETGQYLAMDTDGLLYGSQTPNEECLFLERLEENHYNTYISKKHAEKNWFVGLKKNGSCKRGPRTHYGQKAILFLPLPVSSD
T1 sequence (P09038 134-288 A136E/S138E/K267Q): as the sequence (P09038 134-288 A136E/S138E/R262Q/K267Q) above, with Q129R counted along it
T7 sequence (P09038 134-288 A136E/S138E/K261Q): as the sequence (P09038 134-288 A136E/S138E/R262Q/K267Q) above, with K128Q, Q129R, Q134K counted along it

β-cyclodextran tetradecasulfate [BCDS]: the dissociation constant Kd is 12 ± 0.1 nM in assay [1]; 130 ± 27 nM in assay [2]; 2700 ± 600 nM in assay [3]; 14 ± 7 nM in assay [4]; 3 ± 1 nM in assay [5]; 228 ± 23 nM in assay [6]. Further, the values for the equilibrium dissociation constant (Kd) in assay [7] and in assay [8] were 178 ± 44 nM and 4 ± 2 nM, respectively.

A word on the Kd: it is the concentration at which binding is half-saturated.
